Here are results for 60 molecules from patent US20060159639A1, “Pseudo body odor composition and perfume composition for inhibiting body odor” (priority 2003, published 2006).

The nature of this experiment: Suppression test of Experimental Example 1: masking and harmonizing effect in a cup, four expert panelists.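 As to harmonizing: score 1 means in harmony 0 indefinite and −1 not in harmony.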 The following applies: 200 μl pseudo body odor composition of Example 4 and 10 μl perfume on filter papers in sealed about 500 ml cup, after 30 minutes, four expert panelists; for Masking: scale 0-3; for Harmonizing: scale −1 to 1. As to the method: In the present invention, the selection of the above component (I), component (II) and component (III) was carried out as follows. That is, one of the pseudo body odor compositions mentioned above and a target fragrance component were mixed and left at room temperature for 30 minutes. Thereafter, evaluations of the masking and harmonizing effects to the acid odor were carried out by four expert panelists.
After 30 minutes, a hole of about 1 cm in diameter was formed in the aluminum foil and the investigations of masking effect and the harmonizing effect were carried out according to following evaluation criteria by four expert panelists.
3: Excellent in the masking.
2: Substantially excellent in the masking.
1: Slightly sensible of the body odor (sweat odor and armpit odor).
0: Sensible of the body odor (sweat odor and armpit odor) (insufficient in the masking)

As for “2-butyl-4,6-dimethyl-dihydro-pyran [Vigorose]”, the Masking is reported as 3 and the Harmonizing turned out to be 1.
Taken in the same sequence, the figures for `C=CC(C)(O)CCC=C(C)CC` (mixture of isomers) [Ethyl linalool] were 1.5 points and 0.
In the case of `Cc1cccc(CC(C)(C)CO)c1` [2,2-Dimethyl-3-(3-methylphenyl)propanol], the Masking worked out at 0.5 points and the Harmonizing was −1.
For `CC(C)=CCCC(C)CCCC(C)C=O` (stereo not shown) [2,6,10-Trimethyl-9-undecenal] the same measures were 1 and −1.
The molecule `CC(C)=CCCC(C)C=O` (stereo not shown) [2,6-Dimethyl-5-heptenal] yielded a Masking of 3 and a Harmonizing of 1.
Take `CCCCCCCCCC(C)C=O` (stereo not shown) [2-Methyl undecanal]: the Harmonizing stood at 0.
On to `CC(CO)c1ccccc1` (stereo not shown) [2-Phenyl propanol], for which the Masking is listed as 1 and the Harmonizing is listed as −1.
Taken in the same sequence, the figures for `CC(=O)OC1CCCCC1C(C)(C)C` (stereo not shown) [2-tert-Butylcyclohexyl acetate] were 2 and 1.
For `COc1ccc(C=O)cc1` [4-Methoxybenzaldehyde] the same measures were 2.5 points and 1.
Regarding `CCC=C(C)C(O)CCCCC` (stereo not shown) [4-Methyl-3-decene-5-ol], the Masking is 2.5 points and the Harmonizing was 0.
Taken in the same sequence, the figures for `O=CCCC=C1CC2CC1C1CCCC21` (stereo not shown) [4-Tricyclodecylene butanal] were 1.5 points and 0.
Taken in the same sequence, the figures for `CC(=O)c1c(C)cc(C(C)(C)C)cc1C` [4-tert-Butyl-2,6-dimethylacetophenone] were 2 and 0.
`CCCOC(C)OCCc1ccccc1` (stereo not shown) [Acetoaldehydephenylethylpropyl acetal]: the Masking is reported as 2.5 points and the Harmonizing was determined as 1.
For `C=CCOC(=O)COCCC(C)C` [Allyl amyl glycolate] the same measures were 3 and 1.
For `C=CCOC(=O)CCCCC` [Allyl caproate] the same measures were 3 and 1.
Taken in the same sequence, the figures for `C=CCOC(=O)CCC1CCCCC1` [Allyl cyclohexyl propionate] were 2 and 0.
`C=CCCC(=O)/C=C/C1C(C)=CCCC1(C)C` (stereo not shown) [Allylionone] yielded a Masking of 2.5 points and a Harmonizing of 0.
In turn, `CCC(O)COC1CCCCC1C(C)(C)C` (stereo not shown) [Amber core, 1-(2-tert-butylcyclohexyloxy)butane-2-ol] registered a Masking of 0.5 points and a Harmonizing of −1.
For `CCCC(O)CCC1C(C)CCCC1(C)C` (stereo not shown) [Ambestol, 1-(2,2,6-trimethylcyclohexyl)-3-hexanol] the same measures were 0 and −1.
Taken in the same sequence, the figures for `O=C1CCCC=CCCCCCCCCCC1` [Ambretone, 5-cyclohexadecene-l-one] were 1.5 points and 0.
Taken in the same sequence, the figures for `CC1(C)CCCC2(C)C1CCC1(C)OCCC12` (stereo not drawn) [Ambroxan, Decahydro-3α, 6,6,9α-tetramethyldodecanhydronaphto[2,1-b]furan] were 2 and 1.
For the molecule `CCCCCOC(=O)c1ccccc1O` [Amyl salicylate], the Masking came out at 1 and the Harmonizing is recorded as 0.
For `COc1ccc(COC(C)=O)cc1` [Anisyl acetate] the same measures were 1.5 points and 0.
For `COC(=O)c1ccccc1N=CCC(C)CCCC(C)(C)O` (stereo not shown) [Aurantiol, Hydoroxycitronellylidene methyl anthranilate] the same measures were 2 and 1.
With `CC(=O)OCc1ccccc1` [Benzyl acetate], the Masking was 2.5 points and the Harmonizing turned out to be 1.
For `O=C(OCc1ccccc1)c1ccccc1O` [Benzyl salicylate] the same measures were 1 and −1.
For `CC1(C)C2CCC1(C)C(O)C2` (stereo not shown) [Borneol] the same measures were 2.5 points and 1.
`CC12CCC(CC1=O)C2(C)C` (stereo not shown) [Camphor] showed a Masking of 3 and a Harmonizing of 1.
Regarding `CC(=O)O[C@]1(C)CC[C@@]23C[C@@H]1C(C)(C)[C@@H]2CC[C@H]3C` [Cedryl acetate], the Masking is reported as 0 and the Harmonizing was −1.
For `CO[C@]1(C)CC[C@@]23C[C@@H]1C(C)(C)[C@@H]2CC[C@H]3C` [Cedryl methyl ether] the same measures were 1 and −1.
For `O=C/C=C/c1ccccc1` [Cinnamic aldehyde] the same measures were 2 and 0.
Regarding `CC(C)=CCCC(C)=CC=O` [Citral], the Masking came to 3 and the Harmonizing came out at 1.
In turn, `CC(C)=CCCC(C)CC=O` (stereo not shown) [Citronellal] gave a Masking of 3 and a Harmonizing of 1.
For `CC(C)=CCCC(C)CCO` (stereo not shown) [Citronellol] the same measures were 2.5 points and 1.
For `CC(=O)OCCC(C)CCC=C(C)C` (stereo not shown) [Citronellyl acetate] the same measures were 1.5 points and 0.
Consider `CC(C)=CCCC(C)CC#N` (stereo not shown) [Citronellyl nitrile], for which the Masking came out at 3 and the Harmonizing is recorded as 1.
Take `O=c1ccc2ccccc2o1` [Coumarin]: the Harmonizing amounted to 1.
As for `CC(C)c1ccc(C=O)cc1` [Cumin aldehyde], the Masking is recorded as 1.5 points and the Harmonizing was −1.
For `CC(C=O)Cc1ccc(C(C)C)cc1` (stereo not shown) [Cyclamen aldehyde, 2-methyl-3-(4-isopropylphenyl)propanal] the same measures were 1.5 points and −1.
For `CCC(=O)OC1CC2CC1C1CC=CC21` (stereo not shown) [Cyclaprop, tricyclodecenyl propionate] the same measures were 1 and −1.
The molecule `C=CCOC(=O)COC1CCCCC1` [Cyclogalbanate, allyl cyclohexyl oxyacetate] returned a Masking of 2.5 points and a Harmonizing of 1.
In the case of `C/C=C/C(=O)C1=C(C)C=CCC1(C)C` [Damascenone], the Masking stood at 2 and the Harmonizing is given as 1.
Taken in the same sequence, the figures for `CCCCCCCCCC=O` [Decanal] were 1 and −1.
Taken in the same sequence, the figures for `CCCCCC1=C(C)CCC1=O` [Dihydrojasmone, 3-methyl-2-pentyl-2-cyclopentene-1-one] were 1 and 0.
Taken in the same sequence, the figures for `C=CC(C)CCCC(C)(C)O` (stereo not shown) [Dihydromyrcenol] were 1.5 points and −1.
The molecule `CC(C)CC1CC(C)(O)CCO1` (stereo not shown) [Dihydroroseoxide, 4-methyl-2-(2-methylpropyl)tetrahydro-2H-4-pyranol] showed a Masking of 1.5 points and a Harmonizing of 0.
For `CC(C)CCCC(C)CCO` (stereo not shown) [Dimethyl octanol] the same measures were 1.5 points and 0.
For `CC(=O)OC(C)(C)Cc1ccccc1` [Dimethylbenzyl carbinyl acetate] the same measures were 1 and −1.
For `c1ccc(Oc2ccccc2)cc1` [Diphenyl oxide] the same measures were 1.5 points and 0.
In turn, `CCCCCCCCCCCC=O` [Dodecanal] yielded a Masking of 1.5 points and a Harmonizing of −1.
For `CCOC(=O)CC(C)=O` [Ethyl acetoacetate] the same measures were 3 and 1.
For `CCOC(=O)C(C)CC` (stereo not shown) [Ethyl-2-methyl butylate] the same measures were 3 and 1.
Taken in the same sequence, the figures for `CCCC(C)C(=O)OCC` (stereo not shown) [Ethyl-2-methyl valerate] were 3 and 1.
For `CCOC(=O)C1OC1(C)c1ccccc1` (stereo not shown) [Ethyl-3-methyl-3-phenyl glycidate], the Masking is listed as 2 and the Harmonizing was 0.
For `C=CCc1ccc(O)c(OC)c1` [Eugenol] the same measures were 1.5 points and 0.
For `COC(=O)c1c(C)cc(O)c(C)c1O` [Evernyl, methyl dihydroxydimethyl benzoate] the same measures were 0 and −1.
Taken in the same sequence, the figures for `C=C(C)C1CC=C(C)C(=O)C1` (stereo not shown) [Example 1-Carvone, 1-Carvone] were 3 and 1.
For the molecule `CCCCCCCCC=CCC=O` [Example 3-Dodecenal, 3-Dodecenal], the Masking was 0.5 points and the Harmonizing is given as −1.
For `C=CCCCCCCCCO` [Example 9-Decen-1-ol, 9-Decen-1-ol] the same measures were 1.5 points and 0.
Taken in the same sequence, the figures for `CCc1ccc(CC(C)(C)C=O)cc1` [Floralozone, p-ethyl-α,α-dimethyl phenyl propyl aldehyde] were 1.5 points and 0.
